According to ChEMBL document CHEMBL1128734, “Pyrrolo[1,2-a]benzimidazole-based quinones and iminoquinones. The role of the 3-substituent on cytotoxicity” (J Med Chem, 1995):

Tested on: not listed separately
Experiment: Ratio of the LC50 value to that of PBI-A.
Assay type: functional

First: CC(=O)OC1CCn2c1nc1c2C(=O)C(C)=C(N2CC2)C1=O (configuration not stated)
Second: CC1=C(N2CC2)C(=O)c2nc3n(c2C1=O)CCC3OC(N)=O (configuration not stated)
The Ratio of the first is higher: 1 for the first, 0.84 for the second.

First: CCC(=O)OC1CCn2c1nc1c2C(=O)C(C)=C(N2CC2)C1=O (configuration not stated)
Second: CC1=C(N2CC2)C(=O)c2nc3n(c2C1=O)CCC3
The Ratio of the first is higher: 0.72 for the first, 0.71 for the second.

Tested on: Cancer cell lines
Experiment: Ratio of the LC50 value to that of imino-APBI-A.
Assay type: functional

Compared with CC(=O)NC1=C(C)C(=O)c2c(nc3n2CCC3OC(=O)c2ccccc2)C1=N (configuration not stated), CC(=O)NC1=C(C)C(=O)c2c(nc3n2CCC3OC(C)=O)C1=N (configuration not stated) is higher in Ratio: 0.58 for the first, 1 for the second.

First: CCC(=O)OC1CCn2c1nc1c2C(=O)C(C)=C(NC(C)=O)C1=N (configuration not stated)
Second: COCC(=O)C1CCn2c1nc1c2C(=O)C(C)=C(NC(C)=O)C1=N (configuration not stated)
The Ratio of the first is lower: 0.26 for the first, 0.52 for the second.

For CC(=O)NC1=C(C)C(=O)c2c(nc3n2CCC3O)C1=N (configuration not stated), the Ratio was 0.09.

Tested on: not listed separately
Experiment: COMPARE correlation coefficient of the LC50 response pattern with that of APBI-A.

Going from CC(=O)NC1=C(C)C(=O)c2c(nc3n2CCC3)C1=O to CC(=O)NC1=C(C)C(=O)c2c(nc3n2CCC3OC(C)=O)C1=O (configuration not stated), the COMPARE correlation coefficient rises from 0.7 to 1.

COCC(=O)C1CCn2c1nc1c2C(=O)C(C)=C(NC(C)=O)C1=O (configuration not stated) gave a COMPARE correlation coefficient of 0.71.
